Reference: ChEMBL document CHEMBL1201862, “PubChem BioAssay data set” (2004)
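Following 48 hours of exposure in 96-well plates, responses at five concentrations were used to interpolate endpoints linearly. The concentration for 50% growth inhibition is given as GI50.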 Active and inactive are the calls of the source. Cut-off read from the data, not from the text of the source: active = GI50 up to about 1.1 µM and inactive = higher.

How the values were obtained:
Assay in all cases: inhibition of tumour cell growth, NCI panel, 48 h
[1] = tested on: SF-539
[2] = tested on: UO-31
[3] = tested on: Malme-3M
[4] = tested on: SNB-19
[5] = tested on: OVCAR-4
[6] = tested on: ACHN
[7] = tested on: TK-10
[8] = tested on: SNB-75
[9] = tested on: SF-268
[10] = tested on: NCI-H23
[11] = tested on: RXF 393
[12] = tested on: COLO 205
[13] = tested on: RPMI-8226
[14] = tested on: DU-145
[15] = tested on: HL-60
[16] = tested on: MDA-N
[17] = tested on: CCRF-CEM
[18] = tested on: MDA-MB-435
[19] = tested on: PC-3
[20] = tested on: 786-0

Row | SMILES | GI50 [1] | GI50 [2] | GI50 [3] | GI50 [4] | GI50 [5] | GI50 [6] | GI50 [7] | GI50 [8] | GI50 [9] | GI50 [10] | GI50 [11] | GI50 [12] | GI50 [13] | GI50 [14] | GI50 [15] | GI50 [16] | GI50 [17] | GI50 [18] | GI50 [19] | GI50 [20]
1 | Nc1ccc(C(=O)Nc2ccccc2N)cc1 [DINALINE] | 30.4 µM (inactive) | 42.6 µM (inactive) | 5.92 µM (inactive) | > 100 µM (inactive) | 20.2 µM (inactive) | 31.7 µM (inactive) | 6.32 µM (inactive) | > 36.3 µM (inactive) | 31.1 µM (inactive) | 29.1 µM (inactive) | 38.2 µM (inactive) | 17.6 µM (inactive) | 5.68 µM (inactive) | 41.7 µM (inactive) | 3.37 µM (inactive) | 32.1 µM (inactive) | 11.4 µM (inactive) | 20.4 µM (inactive) | 31.5 µM (inactive) | > 66.4 µM (inactive)
2 | CO[C@H]1[C@H](O)[C@H](O[C@H]2CC[C@@]3(C)[C@H](CC[C@@H]4[C@@H]3CC[C@]3(C)[C@@H](C5=CC(=O)OC5)CC[C@]43O)C2)O[C@@H](C)[C@@H]1O [NERIIFOLIN] | 0.000569 µM (active) | 0.000902 µM (active) | 0.000428 µM (active) | 0.00094 µM (active) | 0.00028 µM (active) | 0.000224 µM (active) | 0.000859 µM (active) | 0.000483 µM (active) | 0.000444 µM (active) | 0.000394 µM (active) | < 0.01 µM (active) | 0.0018 µM (active) | 0.00111 µM (active) | < 0.0001 µM (active) | 0.000419 µM (active) | < 0.0001 µM (active) | 0.000362 µM (active) | < 0.0001 µM (active) | 0.000724 µM (active) | 0.000439 µM (active)
3 | CC(=O)[C@H]1CC[C@H]2[C@@H]3CCC4=CC(=O)CC[C@]4(C)[C@H]3CC[C@]12C [PROGESTERONE] | 17.6 µM (inactive) | 11.4 µM (inactive) | 17.3 µM (inactive) | 24.1 µM (inactive) | 18.7 µM (inactive) | 26 µM (inactive) | 23.9 µM (inactive) | 26.1 µM (inactive) | 23.2 µM (inactive) | 18.1 µM (inactive) | 22.4 µM (inactive) | 16 µM (inactive) | 3.24 µM (inactive) | 28.1 µM (inactive) | 9.98 µM (inactive) | 16.7 µM (inactive) | 15.7 µM (inactive) | 19.8 µM (inactive) | 14.4 µM (inactive) | 20.6 µM (inactive)
